Laboratory results as given in patent US8158621B2, “Methods of treating or preventing autoimmune diseases with 2,4-pyrimidinediamine compounds” (Rigel Pharmaceuticals, Inc., priority 2002, dated 2012).
pIC50: −log10 of the molar value.

How the values were obtained:
[1] = Non-clinical safety studies of R921218 (summary); design: species or system rodents and non-rodents; conditions: in vivo
Excerpt: A short discussion of key toxicology studies is provided.

Syk kinase [2] = assay: Phosphorylation of proteins in the FcεRI cascade in activated CHMC cells; assay type: cell-based, human; conditions: activated CHMC cells, varying concentrations (FIG. 10)
Experimental: (§1) Following electrophoresis, the phosphorylation of the proteins indicated in FIGS. 7, 10 and 11A-D were assessed by immunoblot. Antibodies were purchased from Cell Signaling Technology, Beverley, Mass.

[3] = 14-day repeat-dose intranasal toxicity study in Cynomolgus monkeys; assay type: in vivo; conditions: 14-day intranasal
Experimental: A 14-day repeat-dose intranasal toxicity study in Cynomolgus monkeys was performed at doses of 2.1, 4.5 or 6.3 mg/kg/day. In life parameters included: clinical observations, body weights, food consumption, ophthalmology, blood pressure, electrocardiography, hematology, clinical chemistry, urinalysis, immunotoxicological assessment, gross necropsy, organ weights, toxicokinetic assessments and histopathology (including the nasal cavity).

Syk kinase [4] = assay: Phosphorylation of proteins downstream of Syk kinase in IgE receptor-activated BMMC cells; assay type: cell-based, mouse; conditions: activated mast cells (BMMC)
Experimental: For the assay, BMMC cells were incubated in the presence of varying concentrations of test compound (0.08 μM, 0.4 μM, 2 μM and 10 μM) for 1 hr at 37° C. The cells were then stimulated with anti-IgE antibody as previously described. After 10 min, the cells were lysed and the cellular proteins separated by electrophoresis (SDS PAGE).
as §1

CHMC cells = assay: ionomycin-induced Ca2+ flux in CHMC cells; assay type: cell-based, human; conditions: 10 μM
[5] = tested on: bone marrow derived mast cells (BMMC); assay: BMMC high cell density IgE activation: LTC4; assay type: cell-based, mouse; conditions: High Density; read-out: BMMC anti-IgE LTC4
Experimental: After sensitizing, cells are counted, pelleted (1000 rpm, 5-10 minutes), and resuspended at 1-3×10^6 cells/ml in MT buffer. Add 100 ul of cell suspension to each well and 100 ul of compound dilutions. The final vehicle concentration is 0.5% DMSO. Incubate at 37° C. (5% CO2) for 1 hour. After 1 hour of compound treatment, stimulate cells with 6× stimulus (60 ng/ml DNP-BSA). Mix wells with the cells and allow plates to incubate at 37° C. (5% CO2) for one hour. After 1 hour incubation, pellet cells (10 minutes, 1000 RPM) and collect 200 ul per well of the supernatant, being careful not to disturb pellet, and transfer to a clean tube or 96-well plate. Place the supernatant plate on ice. During the 4-5 hour step (see next) perform the hexosiminidase assay. Resuspend cell pellet in 240 ul WEI-conditioned media containing 0.5% DMSO and corresponding concentration of compound. Incubate BMMC cells for 4-5 hours at 37° C. (5% CO2). After incubation, pellet cells (1000 RPM, 10 minutes) and collect 225 ul per well and place in −80° C. until ready to perform ELISAS. ELISAS are performed on appropriately diluted samples (determined empirically for each donor cell population so that the sample measurement falls within the standard curve) following the supplier's instructions.

[6] = Mouse collagen antibody-induced arthritis (CAIA); assay type: in vivo, Balb/c mice
Experimental: Arthrogen-CIA® Arthritis-inducing Monoclonal Antibody Cocktail (Chemicon International Inc.) is administered intravenously to Balb/c mice (2mg/mouse) on Day 0. Forty-eight hours later, 100 μl of LPS (25 μg) is injected intraperitoneally. On Day 4, toes may appear swollen. By Day 5, one or two paws (particular the hind legs) begin to appear red and swollen. On Day 6, and thereafter, red and swollen paws will remain for at least 1-2 weeks. During the study, the clinical signs of inflammation are scored to evaluate the intensity of edema in the paws. The severity of arthritis is recorded as the sum score of both hind paws for each animal (possible maximum score of 8). The degree of inflammation with involved paws is evaluated by measurement of diameter of the paws. Body weight changes are monitored.
Animals are treated at the time of induction of arthritis, beginning on Day 0. Test compounds and control compounds are administered once a day (q.d.) or twice a day (b.i.d.), via per os (PO), depending on previously established PK profiles.
At the end of the study (1-2 weeks after induction of arthritis), mice are euthanized and the paws are transected at the distal tibia using a guillotine and weighed. The mean±standard error of the mean (SEM) for each group is determined each day from individual animal clinical scores, and hind paw weights for each experimental group are calculated and recorded at study termination. Histopathological evaluation of paws are obtained.

[7] = Mouse model of allergic asthma (ovalbumin); assay type: in vivo; conditions: intranasal, 10 consecutive days (Day 7 through Day 16), 20 mg/kg
Excerpt: Mice are sensitized to ovalbumin (chicken protein) in the presence of an adjuvant (Alum) by the intraperitoneal route on day 0 and day 7. One week later, mice are challenged intranasally with ovalbumin on Days 14, 15 and 16 (more stringent model) or on Day 14 (less stringent model). This sensitization and challenge regimen leads to airway hyperresponsiveness and inflammation in the lungs, which are two dominant characteristics of human allergic asthma. In the mouse model, the in vivo airway responses are measured using a whole body plethysmograph which determines the PENH (enhanced Pause, Buxco Electronics). The PENH is a dimensionless value comprised of the peak inspiratory flow (PIF), peak expiratory flow (PEF), time of inspiration, time of expiration and relaxation time, and is considered a validated parameter of airway responsiveness. Responses to allergen challenge (OVA) are compared with animals challenged with saline only. Twenty-four hours after challenge, mice are exposed to increasing doses of methacholine (muscarinic receptor agonist) which results in smooth muscle contraction. […] In addition, a cellular infiltrate in the airway is observed in ovalbumin challenged mice when compared with the saline challenged mice. This cellular infiltrate is mainly characterized by eosinophils, but a smaller influx of neutrophils and mononuclear cells is also present. […]

[8] = tested on: differentiated human macrophages; assay: Macrophage activation, IgG stimulation: TNF; assay type: cell-based; conditions: stimulus (IgG or LPS) not given; read-out: Monocytes/Macrophage TNF IC50
Experimental: Purity was assessed by measuring the percentage of CD14+ cells by flow cytometry.
A negative control consisting of the F(ab′)2 fragment was also coated to assess background stimulation. Unbound antibody was washed away 2× with 200 ul PBS. […] The cells were incubated for 16 hr in a 37° C. incubator, and supernatants were collected for Luminex analysis for IL-6 and TNFα, essentially as described for the primary T-cells, above.

In the case of `Oc1cccc(Nc2ncc(F)c(Nc3cccc(O)c3)n2)c1` [Compound R921218], the genetic toxicology testing [1] was “no evidence for mutagenic or elastogenic potential”, the “phosphorylation of proteins downstream of Syk kinase, but not LYN kinase, in the FcεRI signal transduction cascade” value (Syk kinase [2]) was “inhibit phosphorylation of proteins downstream of Syk kinase, but not LYN kinase” and the “NOAEL (no observed adverse effect level)” value [3] was 6.3 mg/kg/day. The “phosphorylation of Syk kinase substrates and proteins downstream of Syk kinase” value (Syk kinase [4]) was “inhibit phosporylation of various proteins downstream of Syk kinase”, the “ionomycin-induced Ca2+ flux” value (CHMC cells) was “no effect” and the pIC50 [5] was 6.12.

For `CNC(=O)COc1cccc(Nc2ncc(F)c(Nc3ccc4c(c3)NCCO4)n2)c1` [Compound R921219], the “phosphorylation of proteins downstream of Syk kinase, but not LYN kinase, in the FcεRI signal transduction cascade” value (Syk kinase [2]) was “inhibit phosphorylation of proteins downstream of Syk kinase, but not LYN kinase” and the “phosphorylation of Syk kinase substrates and proteins downstream of Syk kinase” value (Syk kinase [4]) was “inhibit phosporylation of various proteins downstream of Syk kinase”.

For `Nc1cccc(Nc2ncc(F)c(Nc3cccc(N)c3)n2)c1` [Compound R921302], the “Group Average Histopathological Score (0-15), average total score ± SD” value ([6]; 100 mg/kg, twice daily) was 5.1 ± 1.9, the “reduction of paw weight compared with vehicle control group” value ([6]; end of study) was 99.9% and the “histopathological evaluation of the resected paws” value ([6]; mouse, in vivo) was “lesions of lesser severity”.

With `CNC(=O)COc1cccc(Nc2ncc(F)c(Nc3ccc4c(n3)NC(=O)CO4)n2)c1` [Compound R921304] the “ovalbumin-induced airway hyperresponsiveness to methacholine” value [7] was “able to inhibit”.

`OCCCn1ncc2cc(Nc3ncc(F)c(Nc4ccc(Cl)c(Cl)c4)n3)ccc21` [Compound R935391] gave a pIC50 [8] of 5.94.

`CC1(C)Oc2ccc(Nc3nc(Nc4ccc5cn[nH]c5c4)ncc3F)cc2NC1=O` [Compound R940363] showed a pIC50 [8] of 6.88.
